From PubChem BioAssay (NCI)
Values joined by “and” are separate entries in the source; they are usually repeats but may differ in a detail not shown here. Equal entries are not always repeated.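 Exposure lasted 48 hours, with cells grown in 96-well plates and compounds tested at five concentrations. GI50: concentration for 50% inhibition of growth. TGI is the concentration that stops growth completely.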

What was measured:
Assay in all cases: NCI-60 cell line screen, 48 h
HCC-2998 colon = tested on: HCC-2998 colon
HCT-116 colon = tested on: HCT-116 colon
IGROV1 ovarian = tested on: IGROV1 ovarian
KM12 colon = tested on: KM12 colon
MDA-MB-231 breast = tested on: MDA-MB-231 breast
OVCAR-3 ovarian = tested on: OVCAR-3 ovarian
OVCAR-5 ovarian = tested on: OVCAR-5 ovarian
SK-MEL-28 melanoma = tested on: SK-MEL-28 melanoma
TK-10 renal = tested on: TK-10 renal
UACC-62 melanoma = tested on: UACC-62 melanoma

| SMILES | GI50 (HCC-2998 colon) | TGI (HCC-2998 colon) | GI50 (HCT-116 colon) | TGI (HCT-116 colon) | GI50 (IGROV1 ovarian) | TGI (IGROV1 ovarian) | GI50 (KM12 colon) | TGI (KM12 colon) | GI50 (MDA-MB-231 breast) | TGI (MDA-MB-231 breast) | GI50 (OVCAR-3 ovarian) | TGI (OVCAR-3 ovarian) | GI50 (OVCAR-5 ovarian) | TGI (OVCAR-5 ovarian) | GI50 (SK-MEL-28 melanoma) | TGI (SK-MEL-28 melanoma) | GI50 (TK-10 renal) | TGI (TK-10 renal) | GI50 (UACC-62 melanoma) | TGI (UACC-62 melanoma) |
| --- | --- | --- | --- | --- | --- | --- | --- | --- | --- | --- | --- | --- | --- | --- | --- | --- | --- | --- | --- | --- |
| CO/N=C(/C)COc1ccc2c(c1)oc(=O)c1cc(OC)ccc12 | > 100 µM | > 100 µM | > 100 µM | > 100 µM | > 100 µM | > 100 µM | > 100 µM | > 100 µM | 34.1 µM | > 100 µM | > 100 µM | > 100 µM | > 100 µM | > 100 µM | > 100 µM | > 100 µM | > 100 µM | > 100 µM | > 100 µM | > 100 µM |
| COc1cc(/C=C2\CCC/C(=C\c3cc(CN4CCCC4)c(O)c(OC)c3)C2=O)cc(CN2CCCC2)c1O | 2.55 µM | 6.38 µM | 1.66 µM | 3.36 µM | 3.24 µM | 13.3 µM | 2.73 µM | 7.15 µM | 3.81 µM | 12.8 µM | 3.89 µM | 13.8 µM | 4.18 µM | 13.4 µM | 10.1 µM | 22.7 µM | 4.36 µM | 15.5 µM | 3.45 µM | 12.9 µM |
| CC(=O)Oc1ccc(C2OC(c3ccc4ccccc4c3OC(C)=O)=NN2C(C)=O)c(OC(C)=O)c1 (stereo not drawn) | 0.427 µM | 29 µM | 0.328 µM | > 40.2 µM | 0.348 µM | 15.1 µM | 0.536 µM | > 57.6 µM | 0.506 µM | > 89.6 µM | 0.354 µM | 26.1 µM | 2.22 µM | > 100 µM | 0.559 µM | > 53.9 µM | 0.774 µM | > 53.8 µM | 0.331 µM | 9.04 µM |
| CC(C)(C)N1CC1CNC(=O)C(=O)NCC1CN1C(C)(C)C (stereo not drawn) | – | 14.8 µM | – | 10.8 µM | – | 19.7 µM | – | 12.3 µM | – | > 100 µM | – | 46.1 µM | – | 7.56 µM | – | 11.1 µM | – | > 100 µM | – | 6.82 µM |
| Nc1nc(N)c2cc(S(=O)(=O)c3ccc4ccccc4c3)ccc2n1 | – | > 100 µM | – | > 100 µM | – | > 100 µM | – | > 100 µM | – | > 31.6 µM | – | > 100 µM | – | > 100 µM | – | > 100 µM | – | > 81.2 µM | – | > 100 µM |
| NS(=O)(=O)c1ccc(N=Nc2c(O)[nH]c3ccc(C(=O)NCCCn4ccnc4)cc23)cc1 | > 25 µM | > 25 µM | > 25 µM | > 25 µM | > 25 µM | > 25 µM | > 25 µM | > 25 µM | > 25 µM | > 25 µM | > 25 µM | > 25 µM | > 25 µM | > 25 µM | > 25 µM | > 25 µM | > 25 µM | > 25 µM | > 25 µM | > 25 µM |
| COc1ccc2c(c1)OCC1c3cc(OC)c4ccccc4c3OC21 (stereo not drawn) | 1.98 µM | 7.26 µM | 6.65 µM | > 100 µM | 4.98 µM | 21.6 µM | 4.82 µM | > 100 µM | 8.68 µM | 82.9 µM | 1.5 µM | 4.08 µM | 10.2 µM | 57 µM | 9.13 µM | > 100 µM | 11.8 µM | 53.9 µM | 3.05 µM | 18.9 µM |
| COc1cccc(C(=O)NNc2nc(Cl)nc(N3CCN(C(c4ccccc4)c4ccccc4)CC3)n2)c1 | 1.77 µM | 3.43 µM | 1.77 µM | 3.73 µM | 1.63 µM | 3.07 µM | > 100 µM | > 100 µM | 1.88 µM | 3.85 µM | 1.72 µM | 3.28 µM | 16.3 µM | 40 µM | 2.21 µM | 5.38 µM | 51 µM | > 100 µM | 2.3 µM | 5.85 µM |
| CCCCCc1cc(/C=C2/N=C(c3ccc[nH]3)C=C2OC)[nH]c1C | – | 1.02 µM | – | < 0.0387 µM | – | 0.195 µM | – | 0.364 µM | – | 0.0999 µM | – | 0.469 µM | – | 1.26 µM | – | 0.805 µM | – | 1.29 µM | – | 0.03 µM |
| CCN1C(=O)/C(=c2\sc3n(c2=O)C2C(NN=3)N(CC)C(=O)N2CC)c2ccccc21 (stereo not drawn) | 0.859 µM | > 76.8 µM | 0.463 µM | > 54.3 µM | 0.574 µM | > 65.5 µM | 0.469 µM | > 73.4 µM | 1.44 µM | 19.3 µM | 0.323 µM | 3.32 µM | 2.02 µM | > 100 µM | 0.907 µM | > 100 µM | 5.97 µM | 24.6 µM | 0.426 µM | 30 µM |
| CCCCCCCCCCCCC(O)C1CCC(C(O)CCCCC(O)CCCCCC2CC(CC(C)=O)C(=O)O2)O1 (stereo not drawn) | – | 16.3 µM | 1.93 µM | 14.8 µM | 1.49 µM | 3.1 µM and 26.6 µM | 7.64 µM | 4.89 µM and 20.5 µM | – | 7.38 µM | 1.37 µM | 2.65 µM and 7.59 µM | 3.92 µM | 23.6 µM | 2.85 µM | 14 µM | 2.4 µM | 14.1 µM | 1.38 µM | 3.66 µM and 16.3 µM |
| Cn1cc(-c2csc(-c3ccccc3)n2)c2cccnc21 | 16.7 µM | 31.1 µM | 13.8 µM | 26.7 µM | 16.5 µM | 37.4 µM | 12.5 µM | 25 µM | 13.5 µM | 30.8 µM | 16.3 µM | 32 µM | 14 µM | 32.7 µM | 15.7 µM | 31.5 µM | 17.9 µM | 39.1 µM | 12.3 µM | 25.5 µM |
| Cc1cc(S(=O)(=O)Nc2nc3ccccc3c(=O)n2Cc2ccco2)c(S)cc1Cl | 38.6 µM | > 100 µM | 42.3 µM | > 100 µM | 36.9 µM | > 100 µM | 30.1 µM | > 100 µM | 38.5 µM | > 100 µM | 30.5 µM | > 100 µM | 60.4 µM | > 100 µM | 34.8 µM | > 100 µM | 35 µM | > 100 µM | 36.4 µM | > 100 µM |
